Measurements from paper PMC6882468 (Journal of Enzyme Inhibition and Medicinal Chemistry, 2019).

What was measured:
[1] = system: DNFB-induced mouse model of allergic contact dermatitis; test: DNFB-induced mouse model of allergic contact dermatitis (ear swelling); assay type: in vivo, Male ICR mice
Experimental: Male ICR mice (20 ± 2 g) were obtained from the Experimental Animal Centre of Anhui Medical University (Hefei, China). The mice reared in a pathogen-free setting (23 ± 2 °C, 55 ± 5% humidity) with free access to water and pelleted food throughout the experimental cycle. All experimental procedures performed in accordance with guide for the Care and Use of Laboratory Animals (National Research Council, 1996) and were approved by the Experimental Animal Ethics Committee of Anhui University of Chinese Medicine (Hefei, China). After 7 days acclimatisation, the mice were randomly divided into control group, ACD model group, dexamethasone positive control group and 20 compound groups, six in each group. The control group and the model group were given the same dose of the vehicle, the positive control group was given dexamethasone 0.5 mg/kg, and the test compound groups were given compound 5 mg/kg, all of which were given by intragastric administration and were administered once a day for 6 days. Except for the control group, the 50 µL of 1% DNFB (in acetone/olive oil 4:1) was administered to the stripped epidermis, and repeated the next day. After 6 days of drug treatment, 10 µL of 1% DNFB acetone olive oil solution was applied on both sides of the right ear to stimulate inflammation, and equivalent acetone olive oil solution was applied on the left ear for comparison. […] Calculation was carried out according to the following equations. Swelling degree (mg) = MR – ML Inhibitory rate of ear swelling (%)=((MR – ML) model – (MR – ML) treated)/(MR – ML) model ×100% MR=Average weight of the right ear slices;ML= Average weight of the left ear slices […] Dexamethasone (DEX) at a p.o. dose of 0.5 mg/kg was employed as the positive control. After the mice were sacrificed, the swelling degree and inhibition rate were calculated by weighing the same part of both ears.

RAW 264.7 cells = test: Cell viability assay (MTT); assay type: cell-based, Murine; details: RAW264.7 cells, concentrations ranging from 5 to 50 µM, 24 h
Experimental: Murine RAW 264.7 macrophages were obtained from the American Type Culture Collection (ATCC, USA). The cells were incubated in DMEM media supplemented with 10% FBS, 100 U/mL penicillin and […] streptomycin at 37 °C with 5% CO2. Cell viability was assessed using the MTT assay. RAW 264.7 cells were inoculated in 96-well plate at a density of 1.0 × 10^5 cells per well. After incubated for 24 h, the cells were treated with various concentrations of the compound. After an additional 24-h incubation, 20 µL of 0.5 mg/mL MTT reagent was added to wells and incubated for another 4 h. After 4 h, cell culture media was removed and DMOS was added into each well, and then, the optical density was measured at 570 nm. The IC50 values were determined by GraphPad Prism 6.

[2] = system: NO production in RAW 264.7 macrophages; test: Measurement of LPS-induced NO production (Griess); assay type: cell-based, Murine; details: RAW264.7, 2 h pre-treatment (0–20 µM), LPS 200 ng/mL 24 h
Experimental: Murine RAW 264.7 macrophages were obtained from the American Type Culture Collection (ATCC, USA). The cells were incubated in DMEM media supplemented with 10% FBS, 100 U/mL penicillin and […] streptomycin at 37 °C with 5% CO2. The RAW 264.7 macrophages were inoculated at 96-well plates and were pre-treated with vehicle or 6n (0–20 µM dose range) for 2 h and then stimulated with LPS (200 ng/mL) for 24 h. NO concentration in the medium was determined using Griess reagent kit (Beyotime, China) at 540 nm with a microplate reader (MQX200, Bio-Tek, USA) and calculated the inhibition rate of NO.

[3] = system: iNOS expression in RAW264.7 cells; test: Western blot of LPS-induced iNOS expression; assay type: cell-based, Murine; details: RAW264.7, LPS 200 ng/mL 24 h
Experimental: (§1) The cell in 96-well plates were treated as described above and then stimulated with LPS (200 ng/mL) for 24 h. The cells were harvested and lysed in an extraction lysis buffer (Beyotime Biotechnology, Shanghai, China) containing protease inhibitors. The protein concentration was determined using a BCA protein assay kit (Thermo Scientific, 23227). The whole cell lysates were separated by 10% sodium dodecyl sulphate-polyacrylamide gel electrophoresis and transferred to a nitrocellulose membrane. Each membrane was incubated with Tris-buffered saline (pH 7.6, containing 0.05% Tween-20 and 5% non-fat milk). The nitrocellulose membrane was incubated with the primary antibody against p-JNK1/2, JNK1/2, p-p38, p38, p-ERK1/2, ERK1/2, IκBa, NF-κB p65, COX-2, iNOS or β-Actin (Abcam, Cambridge, UK). Immunoreactive bands were detected by incubating with horseradish peroxidase-conjugated secondary antibodies, and visualised using enhanced chemiluminescence reagents (Bio-Rad, Hercules, CA).
(§2) Figure 6. […] Cell viability was evaluated using the MTT assay. NO production was measured using nitrite and nitrate assay. iNOS and COX-2 expression were detected by Western blot. (A) Cell viability assay; (B) Quantitative analysis of NO productions; (C) Quantitative analysis of iNOS expressions, (D) Quantitative analysis of COX-2 expressions. β-actin was used as loading control.

[4] = system: COX-2 expression in RAW264.7 cells; test: Western blot of LPS-induced COX-2 expression; assay type: cell-based, Murine; details: RAW264.7, LPS 200 ng/mL 24 h
Experimental: as §1, §2

[5] = system: JNK phosphorylation in RAW264.7 cells; test: Western blot of LPS-induced JNK phosphorylation; assay type: cell-based, Murine; details: RAW264.7, 5, 10, 20 μM, LPS 200 ng/mL
Experimental: as §1
Figure 7. Compound 6n inhibited LPS-induced MAPK-signalling activation in RAW264.7 cells. RAW264.7 cells were co-incubated with 6n (5, 10, 20 μM) and LPS (200 ng/mL) for 30 min. The levels of p38, JNK, ERK1/2 and their phosphorylated forms were analysed using western blot.

## COc1ccccc1CN1CCN(C(=O)c2ccccc2C(C)=O)CC1 [Compound 6n, 1–(2-(4–(2-Methoxybenzyl)piperazine-1-carbonyl)phenyl)ethan-1-one]
[1]; mice, 5 mg/kg intragastric once a day for 6 days, ear slices weighed 24 h after DNFB challenge, Mean ± SD, n = 6
  Swelling degree: 8.8 ± 3.2 mg
[1]; mice, 5 mg/kg intragastric once a day for 6 days, vs model group
  Inhibition (%) of ear swelling: 46.3%
[1]; p.o. 5 mg/kg, p < 0.01
  in vivo inhibitory activity, in words: significant inhibitory activity
RAW 264.7 cells
  cytotoxicity: no significant toxicity
[2]
  LPS-induced NO production: reduced LPS-induced NO production in a dose-dependent manner
[3]
  LPS-induced expression of iNOS: dose-dependent decrease
[4]
  LPS-induced expression of COX-2: dose-dependent decrease
[5]
  phosphorylation of JNK: no obvious effect
